Patent publication US20080200442A1, “Compositions and Methods for Treating, Reducing, Ameliorating, or Preventing Infections of the Ear or Upper Respiratory Tract” (priority 2007, published 2008)
In brackets after ≈: the same amount, converted by molar mass. Read-outs that look alike come from different tables or passages of the source.

Legend:
Format in all cases: cell-based
[1] = tested on: Propionibacterium acnes (ATCC 6919); test: In vitro anti-bacterial activity (MIC90), anaerobic reference bacteria; settings: Cutibacterium acnes, ATCC6919
[2] = tested on: Gentamycin-resistant Staphylococcus aureus; test: In vitro anti-bacterial activity (MIC90), ophthalmologic clinical bacteria isolates
[3] = tested on: Propionibacterium acnes (GAI 5419); test: In vitro anti-bacterial activity (MIC90), anaerobic reference bacteria; settings: Cutibacterium acnes
[4] = tested on: Clostridium perfringens (KZ 210); test: microbe, parasite or virus in culture
Staphylococcus aureus = test: In vitro anti-bacterial activity (MIC90), ophthalmologic clinical bacteria isolates; settings: Gram-positive
[5] = tested on: Bacteroides thetaiotaomicron (GAI 0659); test: In vitro anti-bacterial activity (MIC90), anaerobic reference bacteria
[6] = tested on: Staphylococcus aureus (No. 421); test: In vitro anti-bacterial activity (MIC90), methicillin-resistant Staphylococcus aureus isolates; settings: methicillin-resistant Staphylococcus aureus (No. 421)
Method: (§1) Anti-bacterial activity of the compound having Formula III was tested against several Gram-negative reference bacteria strains and compared to the anti-bacterial activity of three commercially available antibiotics (nadifloxacin, ofloxacin, and sparfloxacin). The results are shown in Table 2 as MIC90 values (minimum concentration of the active compound required to inhibit ninety percent of the growth of a specified pathogen, in μg/ml).
(§2) Anti-bacterial activity of the compound having Formula III was tested against some methicillin-resistant Staphylococcus aureus bacteria strains and compared to the anti-bacterial activity of three commercially available antibiotics (nadifloxacin, ofloxacin, and sparfloxacin).

[7] = tested on: Staphylococcus aureus (No. 395); test: as above; settings: methicillin-resistant Staphylococcus aureus (No. 395)
Method: as §1, §2

[8] = tested on: Staphylococcus aureus (ATCC 33591); test: as above; settings: ATCC33591; methicillin-resistant Staphylococcus aureus (ATCC 33591)
Method: as §1, §2

[9] = tested on: Staphylococcus aureus (ATCC 33592); test: as above; settings: ATCC33592; methicillin-resistant Staphylococcus aureus (ATCC 33592)
Method: as §1, §2

[10] = tested on: Staphylococcus aureus (No. 419); test: as above; settings: methicillin-resistant Staphylococcus aureus (No. 419)
Method: as §1, §2

[11] = tested on: Staphylococcus aureus (No. 420); test: as above; settings: methicillin-resistant Staphylococcus aureus (No. 420)
Method: as §1, §2

[12] = tested on: Staphylococcus aureus (No. 415); test: as above; settings: methicillin-resistant Staphylococcus aureus (No. 415)
Method: as §1, §2

[13] = tested on: Staphylococcus aureus (ATCC 33593); test: as above; settings: ATCC33593; methicillin-resistant Staphylococcus aureus (ATCC 33593)
Method: as §1, §2

[14] = tested on: Veillonella parvula (GAI 5602); test: In vitro anti-bacterial activity (MIC90), anaerobic reference bacteria
[15] = tested on: Penicillin-resistant Streptococcus pneumoniae; test: In vitro anti-bacterial activity (MIC90), ophthalmologic clinical bacteria isolates
Corynebacterium species = test: as above; settings: Gram-positive
Moraxella species = test: as above; settings: Gram-negative
[16] = tested on: Sarcina lutea (ATCC 9341); test: In vitro anti-bacterial activity (MIC90), Gram-positive reference strains; settings: Micrococcus luteus, ATCC9341
Method: as §1, with “μg/ml). Anti-bacterial activity of the compound having Formula III was tested against several Gram-positive reference bacteria strains and compared to the anti-bacterial activity of three commercially available antibiotics (nadifloxacin, ofloxacin, and sparfloxacin).” for “μg/ml).”

[17] = tested on: Streptococcus pyogenes (IID 698); test: as above; settings: IID698
Method: as §1, with “μg/ml). Anti-bacterial activity of the compound having Formula III was tested against several Gram-positive reference bacteria strains and compared to the anti-bacterial activity of three commercially available antibiotics (nadifloxacin, ofloxacin, and sparfloxacin).” for “μg/ml).”

[18] = tested on: Staphylococcus aureus (Smith); test: as above
Method: as §1, with “μg/ml). Anti-bacterial activity of the compound having Formula III was tested against several Gram-positive reference bacteria strains and compared to the anti-bacterial activity of three commercially available antibiotics (nadifloxacin, ofloxacin, and sparfloxacin).” for “μg/ml).”

[19] = tested on: Streptococcus faecalis (IFO 12964); test: as above; settings: Enterococcus faecalis, IFO12964
Method: as §1, with “μg/ml). Anti-bacterial activity of the compound having Formula III was tested against several Gram-positive reference bacteria strains and compared to the anti-bacterial activity of three commercially available antibiotics (nadifloxacin, ofloxacin, and sparfloxacin).” for “μg/ml).”

[20] = tested on: Staphylococcus aureus (FDA 209P); test: as above; settings: FDA209P
Method: as §1, with “μg/ml). Anti-bacterial activity of the compound having Formula III was tested against several Gram-positive reference bacteria strains and compared to the anti-bacterial activity of three commercially available antibiotics (nadifloxacin, ofloxacin, and sparfloxacin).” for “μg/ml).”

[21] = tested on: Streptococcus pyogenes (Cook); test: as above
Method: as §1, with “μg/ml). Anti-bacterial activity of the compound having Formula III was tested against several Gram-positive reference bacteria strains and compared to the anti-bacterial activity of three commercially available antibiotics (nadifloxacin, ofloxacin, and sparfloxacin).” for “μg/ml).”

[22] = tested on: Streptococcus faecalis (ATCC 29212); test: as above; settings: Enterococcus faecalis, ATCC29212
Method: as §1, with “μg/ml). Anti-bacterial activity of the compound having Formula III was tested against several Gram-positive reference bacteria strains and compared to the anti-bacterial activity of three commercially available antibiotics (nadifloxacin, ofloxacin, and sparfloxacin).” for “μg/ml).”

[23] = tested on: Staphylococcus aureus (ATCC 25933); test: as above; settings: ATCC25933
Method: as §1, with “μg/ml). Anti-bacterial activity of the compound having Formula III was tested against several Gram-positive reference bacteria strains and compared to the anti-bacterial activity of three commercially available antibiotics (nadifloxacin, ofloxacin, and sparfloxacin).” for “μg/ml).”

[24] = tested on: Bacillis subtilis (ATCC 6633); test: as above
Method: as §1, with “μg/ml). Anti-bacterial activity of the compound having Formula III was tested against several Gram-positive reference bacteria strains and compared to the anti-bacterial activity of three commercially available antibiotics (nadifloxacin, ofloxacin, and sparfloxacin).” for “μg/ml).”

[25] = tested on: Staphylococcus epidermidis (ATCC 12228); test: as above; settings: ATCC12228
Method: as §1, with “μg/ml). Anti-bacterial activity of the compound having Formula III was tested against several Gram-positive reference bacteria strains and compared to the anti-bacterial activity of three commercially available antibiotics (nadifloxacin, ofloxacin, and sparfloxacin).” for “μg/ml).”

[26] = tested on: Streptococcus pneniae (IID 554); test: as above; settings: IID554
Method: as §1, with “μg/ml). Anti-bacterial activity of the compound having Formula III was tested against several Gram-positive reference bacteria strains and compared to the anti-bacterial activity of three commercially available antibiotics (nadifloxacin, ofloxacin, and sparfloxacin).” for “μg/ml).”

[27] = tested on: Streptococcus pneumoniae (IID 553); test: as above; settings: IID553
Method: as §1, with “μg/ml). Anti-bacterial activity of the compound having Formula III was tested against several Gram-positive reference bacteria strains and compared to the anti-bacterial activity of three commercially available antibiotics (nadifloxacin, ofloxacin, and sparfloxacin).” for “μg/ml).”

Haemophilus influenzae = test: In vitro anti-bacterial activity (MIC90), ophthalmologic clinical bacteria isolates; settings: Gram-negative
Streptococcus pneumoniae = test: as above; settings: Gram-positive
Propionibacterium acnes = test: as above; settings: Cutibacterium acnes, Gram-positive
[28] = tested on: Peptostreptococcus micros (GIFU 7824); test: In vitro anti-bacterial activity (MIC90), anaerobic reference bacteria; settings: Parvimonas micra
[29] = tested on: Peptostreptococcus magnum (GAI 0664); test: as above
[30] = tested on: Propionibacterium acnes (ATCC 11828); test: as above; settings: Cutibacterium acnes, ATCC11828
[31] = tested on: Salmonella typhimurium (TD); test: In vitro anti-bacterial activity (MIC90), Gram-negative reference strains
Method: Anti-bacterial activity of the compound having Formula III was tested against several Gram-negative reference bacteria strains and compared to the anti-bacterial activity of three commercially available antibiotics (nadifloxacin, ofloxacin, and sparfloxacin).

[32] = tested on: Bacteroides vulgatus (GAI 0673); test: In vitro anti-bacterial activity (MIC90), anaerobic reference bacteria; settings: Phocaeicola vulgatus
[33] = tested on: Bacteroides fragillis (GAI 0675); test: as above
[34] = tested on: Ofloxacin-resistant Staphylococcus aureus; test: In vitro anti-bacterial activity (MIC90), ophthalmologic clinical bacteria isolates
[35] = tested on: Gentamycin-resistant Pseudomonas aeruginosa; test: as above
Pseudomonas aeruginosa = test: as above; settings: Gram-negative
[36] = tested on: Coagulase-negative Staphylococcus; test: as above; settings: Gram-positive

Structure (SMILES): CC1COc2c(N3CCN(C)CC3)c(F)cc3c(=O)c(C(=O)O)cn1c23 (centres unmarked) [Ofloxacin]
- MIC90 [1]: 0.78 µg/mL (≈ 2.16 µM)
- MIC90 [2]: 128 µg/mL (≈ 354 µM)
- MIC90 [3]: 0.78 µg/mL (≈ 2.16 µM)
- MIC90 [4]: 0.78 µg/mL (≈ 2.16 µM)
- MIC90 (Staphylococcus aureus): 32 µg/mL (≈ 88.6 µM)
- MIC90 ([5]; Bacteroides thetaiotaomicron): 3.13 µg/mL (≈ 8.66 µM)
- MIC90 [6]: 1.56 µg/mL (≈ 4.32 µM)
- MIC90 [7]: 0.2 µg/mL (≈ 0.553 µM)
- MIC90 [8]: 0.05 µg/mL (≈ 0.138 µM)
- MIC90 [9]: 0.39 µg/mL (≈ 1.08 µM)
- MIC90 [10]: 3.13 µg/mL (≈ 8.66 µM)
- MIC90 [11]: 1.56 µg/mL (≈ 4.32 µM)
- MIC90 [12]: 0.78 µg/mL (≈ 2.16 µM)
- MIC90 [13]: 0.2 µg/mL (≈ 0.553 µM)
- MIC90 [14]: 0.39 µg/mL (≈ 1.08 µM)
- MIC90 [15]: 2 µg/mL (≈ 5.53 µM)
- MIC90 (Corynebacterium species): 32 µg/mL (≈ 88.6 µM)
- MIC90 (Moraxella species): 0.13 µg/mL (≈ 0.36 µM)
- MIC90 [16]: 3.13 µg/mL (≈ 8.66 µM)
- MIC90 [17]: 0.39 µg/mL (≈ 1.08 µM)
- MIC90 [18]: 0.2 µg/mL (≈ 0.553 µM)
- MIC90 [19]: 1.56 µg/mL (≈ 4.32 µM)
- MIC90 [20]: 0.2 µg/mL (≈ 0.553 µM)
- MIC90 [21]: 0.78 µg/mL (≈ 2.16 µM)
- MIC90 [22]: 1.56 µg/mL (≈ 4.32 µM)
- MIC90 [23]: 0.39 µg/mL (≈ 1.08 µM)
- MIC90 [24]: 0.05 µg/mL (≈ 0.138 µM)
- MIC90 [25]: 0.78 µg/mL (≈ 2.16 µM)
- MIC90 [26]: 1.56 µg/mL (≈ 4.32 µM)
- MIC90 [27]: 1.56 µg/mL (≈ 4.32 µM)
- MIC90 (Haemophilus influenzae): ≤ 0.06 µg/mL
- MIC90 (Streptococcus pneumoniae): 2 µg/mL (≈ 5.53 µM)
- MIC90 (Propionibacterium acnes): 1 µg/mL (≈ 2.77 µM)
- MIC90 [28]: 0.78 µg/mL (≈ 2.16 µM)
- MIC90 [29]: 0.39 µg/mL (≈ 1.08 µM)
- MIC90 [30]: 1.56 µg/mL (≈ 4.32 µM)
- MIC90 [31]: 0.05 mμg/mL
- MIC90 [32]: 3.13 µg/mL (≈ 8.66 µM)
- MIC90 [33]: 1.56 µg/mL (≈ 4.32 µM)
- MIC90 [34]: > 128 µg/mL
- MIC90 [35]: 64 µg/mL (≈ 177 µM)
- MIC90 (Pseudomonas aeruginosa): 4 µg/mL (≈ 11.1 µM)
- MIC90 [36]: 8 µg/mL (≈ 22.1 µM)

Structure (SMILES): NC1CCCCN(c2c(F)cc3c(=O)c(C(=O)O)cn(C4CC4)c3c2Cl)C1 (centres unmarked) [Compound Having Formula III]
- MIC90 [1]: 0.2 µg/mL
- MIC90 [2]: 4 µg/mL
- MIC90 [3]: 0.2 µg/mL
- MIC90 [4]: 0.2 µg/mL
- MIC90 (Staphylococcus aureus): 1 µg/mL
- MIC90 ([5]; anaerobic, Bacteroides thetaiotaomicron (GAI 0659), read-out: MIC90): 0.2 µg/mL
- MIC90 [6]: 0.2 µg/mL
- MIC90 [7]: 0.006 µg/mL
- MIC90 [8]: 0.012 µg/mL
- MIC90 [9]: 0.05 µg/mL
- MIC90 [10]: 0.1 µg/mL
- MIC90 [11]: 0.1 µg/mL
- MIC90 [12]: 0.05 µg/mL
- MIC90 [13]: 0.012 µg/mL
- MIC90 [14]: 0.1 µg/mL
- MIC90 [15]: 0.13 µg/mL
- MIC90 (Corynebacterium species): 2 µg/mL
- MIC90 (Moraxella species): 0.13 µg/mL
- MIC90 [16]: 0.1 µg/mL
- MIC90 [17]: 0.1 µg/mL
- MIC90 [18]: 0.006 µg/mL
- MIC90 [19]: 0.1 µg/mL
- MIC90 [20]: 0.012 µg/mL
- MIC90 [21]: 0.1 µg/mL
- MIC90 [22]: 0.2 µg/mL
- MIC90 [23]: 0.05 µg/mL
- MIC90 [24]: 0.012 µg/mL
- MIC90 [25]: 0.05 µg/mL
- MIC90 [26]: 0.2 µg/mL
- MIC90 [27]: 0.1 µg/mL
- MIC90 (Haemophilus influenzae): ≤ 0.06 µg/mL
- MIC90 (Streptococcus pneumoniae): 0.13 µg/mL
- MIC90 (Propionibacterium acnes): 0.25 µg/mL
- MIC90 [28]: 0.2 µg/mL
- MIC90 [29]: 0.05 µg/mL
- MIC90 [30]: 0.39 µg/mL
- MIC90 [31]: 0.05 mμg/mL
- MIC90 [32]: 0.1 µg/mL
- MIC90 [33]: 0.1 µg/mL
- MIC90 [34]: 8 µg/mL
- MIC90 [35]: 32 µg/mL
- MIC90 (Pseudomonas aeruginosa): 4 µg/mL
- MIC90 [36]: 0.5 µg/mL
